Results as given in paper PMC4476799, “Englerin A Agonizes the TRPC4/C5 Cation Channels to Inhibit Tumor Cell Line Proliferation” (PLoS ONE, 2015).
pEC50, pIC50: −log10 of the molar value. Like-named read-outs stand apart in the source and are kept apart here.

System: cancer cell lines from the cancer cell line encyclopedia (CCLE)
Test: Cell line profiling (CLiP) proliferation experiment
Type: cell-based
Conditions: Homo sapiens; for pEC50: read-out: Inflection Point; for pIC50: read-out: Crossing Point
Method: Compound profiling experiment and data analysis was performed as previously described. Data was imported and plotted using the Tibco Spotfire DXP application. Lines were categorized as sensitive, intermediate and refractory as follows: Amax<-40 & Inflection Point <2 ~ Sensitive, Amax>-20 & Inflection Point >10 ~ Refractory, all else were called Intermediate. Cancer Cell line HG-U133 Plus 2 data was processed and normalized as described. […] Five sets of refractory cell lines were generated from the pool of refractory cell lines trying to match the lineage composition of the set of sensitive cell lines. The limma package was used as previously described to perform the statistical comparison.

[1] = MKN-74, cell line MKN74 (stomach)
[2] = MM1.S, cell line MM1-S (haematopoietic_and_lymphoid_tissue)
[3] = MOLM-13, cell line MOLM-13 (haematopoietic_and_lymphoid_tissue)
[4] = MOLP-8, cell line MOLP-8 (haematopoietic_and_lymphoid_tissue)
[5] = MOLT-16, cell line MOLT-16 (haematopoietic_and_lymphoid_tissue)
[6] = MONO-MAC-6, cell line MONO-MAC-6 (haematopoietic_and_lymphoid_tissue)
[7] = MV4-11, cell line MV-4-11 (haematopoietic_and_lymphoid_tissue)
[8] = NCI-H82, NCI-H82, lung, small_cell_carcinoma
[9] = NCI-H441, NCI-H441, lung, adenocarcinoma
[10] = NCI-H647, NCI-H647, lung, mixed_adenosquamous_carcinoma
[11] = NCI-H650, NCI-H650, lung, bronchioloalveolar_adenocarcinoma
[12] = NCI-H716, NCI-H716, large_intestine, adenocarcinoma
[13] = NCI-H810, NCI-H810, lung, large_cell_carcinoma
[14] = NCI-H1092, cell line NCI-H1092 (lung)
[15] = NCI-H1299, cell line NCI-H1299 (lung)
[16] = NCI-H1563, cell line NCI-H1563 (lung)
[17] = NCI-H1581, cell line NCI-H1581 (lung)

Compound: CC(C)[C@@]12C[C@@H](O)[C@@](C)(O1)[C@@H]1CC[C@@H](C)[C@H]1[C@@H]2OC(=O)/C=C/c1ccccc1 [Englerin B]
- pEC50 (MIA PaCa-2, cell line MIA PaCa-2 (pancreas)): 4.95
- pIC50 (MKN-1, cell line MKN1 (stomach)): < 4.52
- pIC50 (MKN-1, cell line MKN1): < 4.52
- pIC50 (MKN-7, MKN7 (stomach)): < 4.52
- pIC50 (MKN-7, cell line MKN7 (stomach)): < 4.52
- pIC50 (MKN-45, MKN-45 (stomach)): < 4.52
- pIC50 (MKN-45, cell line MKN-45 (stomach)): < 4.52
- pIC50 [1]: 4.56
- pEC50 [1]: 4.56
- pIC50 [2]: < 4.52
- pEC50 [2]: 4.59
- pIC50 (MM1.S, cell line MM1-S): < 4.52
- pEC50 (MOLM-13, MOLM-13 (haematopoietic_and_lymphoid_tissue)): 4.88
- pIC50 [3]: 4.87
- pEC50 [3]: 4.88
- pIC50 [4]: 4.78
- pEC50 [4]: 4.92
- pIC50 (MOLP-8, cell line MOLP-8): 4.78
- pIC50 [5]: 4.63
- pEC50 [5]: 4.63
- pIC50 [6]: 4.73
- pEC50 [6]: 4.73
- pIC50 (MSTO-211H, cell line MSTO-211H (pleura)): 4.56
- pIC50 (MV4-11, MV-4-11 cells): 4.94
- pEC50 (MV4-11, MV-4-11 cells): 4.94
- pIC50 [7]: 4.94
- pEC50 [7]: 4.94
- pIC50 (Malme-3M, Malme-3M (skin)): < 4.52
- pIC50 (Malme-3M, Malme-3M cells): < 4.52
- pIC50 (Maver1, MAVER-1 (haematopoietic_and_lymphoid_tissue)): 4.88
- pIC50 (MeWo, cell line MeWo (skin)): 4.58
- pEC50 (MeWo, cell line MeWo (skin)): 4.65
- pIC50 (NALM-6, cell line NALM-6 (haematopoietic_and_lymphoid_tissue)): 4.93
- pIC50 (NCI-H28, NCI-H28, pleura, NS): 4.92
- pEC50 (NCI-H28, NCI-H28, pleura, NS): 4.98
- pIC50 [8]: 4.71
- pEC50 [8]: 4.71
- pIC50 (NCI-H82, NCI-H82 cells): 4.71
- pEC50 (NCI-H82, NCI-H82 cells): 4.71
- pIC50 (NCI-H146, NCI-H146 cells): < 4.52
- pIC50 (NCI-H146, cell line NCI-H146 (lung)): < 4.52
- pIC50 (NCI-H226, NCI-H226, lung, squamous_cell_carcinoma): < 4.52
- pIC50 (NCI-H226, cell line NCI-H226): < 4.52
- pIC50 (NCI-H358, NCI-H358, lung, bronchioloalveolar_adenocarcinoma): 4.64
- pIC50 [9]: < 4.52
- pEC50 [9]: 4.90
- pIC50 (NCI-H441, cell line NCI-H441): < 4.52
- pIC50 (NCI-H460, NCI-H460, lung, large_cell_carcinoma): < 4.52
- pIC50 (NCI-H460, cell line NCI-H460): < 4.52
- pIC50 (NCI-H520, NCI-H520, lung, squamous_cell_carcinoma): < 4.52
- pIC50 (NCI-H520, NCI-H520 cells): < 4.52
- pIC50 (NCI-H596, NCI-H596, lung, mixed_adenosquamous_carcinoma): < 4.52
- pIC50 (NCI-H596, NCI-H596 cells): < 4.52
- pIC50 [10]: 4.83
- pEC50 [10]: 4.83
- pIC50 [11]: 4.80
- pEC50 [11]: 4.80
- pIC50 (NCI-H650, NCI-H650 cells): 4.80
- pEC50 (NCI-H650, NCI-H650 cells): 4.80
- pIC50 (NCI-H661, NCI-H661, lung, large_cell_carcinoma): < 4.52
- pIC50 (NCI-H661, NCI-H661 cells): < 4.52
- pIC50 [12]: 4.53
- pEC50 [12]: 4.67
- pEC50 (NCI-H716, NCI-H716 cells): 4.67
- pIC50 (NCI-H727, NCI-H727, lung, NS): < 4.52
- pIC50 (NCI-H727, cell line NCI-H727): < 4.52
- pIC50 [13]: 4.58
- pEC50 [13]: 4.68
- pIC50 (NCI-H838, NCI-H838, lung, adenocarcinoma): < 4.52
- pIC50 (NCI-H838, NCI-H838 cells): < 4.52
- pIC50 (NCI-H1048, cell line NCI-H1048 (lung)): 5.32
- pIC50 [14]: < 4.52
- pEC50 [14]: 5.46
- pIC50 (NCI-H1092, cell line NCI-H1092): < 4.52
- pIC50 [15]: 4.89
- pEC50 [15]: 4.95
- pIC50 (NCI-H1355, cell line NCI-H1355 (lung)): 4.97
- pIC50 (NCI-H1437, NCI-H1437 cells): < 4.52
- pIC50 (NCI-H1437, cell line NCI-H1437 (lung)): < 4.52
- pIC50 [16]: < 4.52
- pEC50 [16]: 5.00
- pIC50 (NCI-H1563, cell line NCI-H1563): < 4.52
- pIC50 (NCI-H1573, cell line NCI-H1573 (lung)): 5.82
- pEC50 (NCI-H1581, NCI-H1581 cells): 4.81
- pIC50 [17]: 4.83
- pEC50 [17]: 4.81
- pIC50 (NCI-H1623, cell line NCI-H1623 (lung)): < 4.52
- pIC50 (NCI-H1623, cell line NCI-H1623): < 4.52
- pIC50 (NCI-H1650, NCI-H1650 (lung)): 4.58
- pIC50 (NCI-H1650, cell line NCI-H1650 (lung)): 4.58
- pIC50 (NCI-H1651, NCI-H1651 cells): < 4.52
- pIC50 (NCI-H1651, cell line NCI-H1651 (lung)): < 4.52
